Reference: publication PMC12724231, “APC24-7, a covalent combination of boronic acid and chelator moieties, restores β-lactam efficiency against metallo-β-lactamase-producers” (mSphere, 2025)
Where two headings read alike, the source gives them in different places.

Experiments:
Assay in all cases: microbe, parasite or virus in culture
Escherichia coli MP21-05 = test system: T1, Escherichia coli MP21-05; design: species or system E. coli E. cloni 10G; Microdilution MIC of inhibitor alone in LB, OD600 read-out, E. coli 10G without or with empty vector; settings: MP2105, inhibitor alone
T1 construct: MP21-05
Protocol: (§1) Susceptibility testing of isogenic E. coli E. cloni 10G (Table 2) was determined by both the microdilution assay. […] Overnight cultures were prepared in LB supplemented with 25 mg/L chloramphenicol at 37°C under shaking at 700 rpm. The overnight cultures were diluted in PBS to 10^6 CFU/ mL, followed by inoculation in LB to ~10^5 CFU in 384-well plates (VWR, Radnor, PA, USA). Plates were prepared with twofold increasing concentrations of meropenem and cefepime ([…], respectively) to a total inoculated volume of 100 µL Plates were incubated at 37°C without shaking for 19–21 h. OD600 was determined in a SpectraMax Plus plate reader (Molecular Devices).

Escherichia coli MP32-64 = test system: T2, Escherichia coli MP32-64; design: species or system E. coli E. cloni 10G; Microdilution MIC of inhibitor alone in LB, OD600 read-out, E. coli 10G without or with empty vector; settings: MP3264, inhibitor alone
T2 construct: MP32-64
Protocol: as §1

[1] = test system: T3, Klebsiella pneumoniae BAA1705; design: species or system clinical isolates of E. coli and K. pneumoniae; Broth microdilution MIC (CLSI), cation-adjusted Mueller-Hinton broth, visual reading, antibiotic alone against clinical isolates; settings: Klebsiella pneumoniae, BAA1705, antibiotic alone
T3 construct: ATCC BAA-1705
Protocol: (§2) MICs for clinical isolates were determined in a broth microdilution assay according to Clinical and Laboratory Standards Institute (CLSI) ([75]), using cation-adjusted Mueller-Hinton broth (Thermo Fisher Scientific, Lenexa, USA). The direct colony suspension method was utilized by preparing an inoculum of an OD600 0.17, except for E. coli #36 in which 0.10 was used, which equated to a concentration of 10^8 colony-forming units (CFU) per mL. Inoculum controls were included for all assays ([76]). MICs for all clinical isolates were determined alone and in combination with inhibitors for all BLs tested, either using manually prepared plates of aztreonam, cefepime, ceftazidime, and amoxicillin or premade plates of meropenem (Sensititre), and all antibiotics tested at a twofold increasing concentration of 0.03–64 mg/L (Table 1; Table S3). Compound APC24-7 was tested at a fixed concentration of 14, 28, and 57 µM (8, 16, or 32 mg/L) with meropenem, and for all other BLs tested at the highest inhibitor concentration to be able to compare the efficiency of the BI/BLI combinations. Taniborbactam was tested at a fixed equimolar concentration (6.5, 13, and 26 mg/L) and only evaluated with meropenem. A minimum of 2–3 replicates was performed for all combinations. Assay plates were incubated at 37°C without shaking for 16–20 h, and the results were visually interpreted in accordance with EUCAST guidelines and clinical breakpoint table version 15.0 (www.eucast.org).

Escherichia coli #36 = test system: T4, Escherichia coli #36; design: species or system clinical isolates of E. coli and K. pneumoniae; Broth microdilution MIC (CLSI), cation-adjusted Mueller-Hinton broth, visual reading, antibiotic alone against clinical isolates; settings: Escherichia coli, antibiotic alone
T4 construct: #36
Protocol: as §2

[2] = test system: T5, Klebsiella pneumoniae BAA-2146; design: species or system clinical isolates of E. coli and K. pneumoniae; Broth microdilution MIC (CLSI), cation-adjusted Mueller-Hinton broth, visual reading, antibiotic alone against clinical isolates; settings: Klebsiella pneumoniae, BAA2146, antibiotic alone
T5 construct: ATCC BAA-2146
Protocol: as §2

[3] = test system: T6, Klebsiella pneumoniae KresCPE0353; design: species or system clinical isolates of E. coli and K. pneumoniae; Broth microdilution MIC (CLSI), cation-adjusted Mueller-Hinton broth, visual reading, antibiotic alone against clinical isolates; settings: Klebsiella pneumoniae, KRESCPE0353, antibiotic alone
T6 construct: KresCPE0353
Protocol: as §2

Escherichia coli #29 = test system: T7, Escherichia coli #29; design: species or system clinical isolates of E. coli and K. pneumoniae; Broth microdilution MIC (CLSI), cation-adjusted Mueller-Hinton broth, visual reading, antibiotic alone against clinical isolates; settings: Escherichia coli, antibiotic alone
T7 construct: #29
Protocol: as §2

[4] = test system: T8, Klebsiella pneumoniae KresCPE0372; design: species or system clinical isolates of E. coli and K. pneumoniae; Broth microdilution MIC (CLSI), cation-adjusted Mueller-Hinton broth, visual reading, antibiotic alone against clinical isolates; settings: Klebsiella pneumoniae, KRESCPE0372, antibiotic alone
T8 construct: KresCPE0372
Protocol: as §2

[5] = test system: T9, Klebsiella pneumoniae K46-62; design: species or system clinical isolates of E. coli and K. pneumoniae; Broth microdilution MIC (CLSI), cation-adjusted Mueller-Hinton broth, visual reading, antibiotic alone against clinical isolates; settings: Klebsiella pneumoniae, K4662, antibiotic alone
T9 construct: K46-62
Protocol: as §2

[6] = test system: T10, Klebsiella pneumoniae KresCPE0097; design: species or system clinical isolates of E. coli and K. pneumoniae; Broth microdilution MIC (CLSI), cation-adjusted Mueller-Hinton broth, visual reading, antibiotic alone against clinical isolates; settings: Klebsiella pneumoniae, KRESCPE0097, antibiotic alone
T10 construct: KresCPE0097
Protocol: as §2

Escherichia coli #22 = test system: T11, Escherichia coli #22; design: species or system clinical isolates of E. coli and K. pneumoniae; Broth microdilution MIC (CLSI), cation-adjusted Mueller-Hinton broth, visual reading, antibiotic alone against clinical isolates; settings: Escherichia coli, antibiotic alone
T11 construct: #22
Protocol: as §2

[7] = test system: T12, Escherichia coli BAA-2469; design: species or system clinical isolates of E. coli and K. pneumoniae; Broth microdilution MIC (CLSI), cation-adjusted Mueller-Hinton broth, visual reading, antibiotic alone against clinical isolates; settings: Escherichia coli, BAA2469, antibiotic alone
T12 construct: ATCC BAA-2469
Protocol: as §2

[8] = test system: T13, Klebsiella pneumoniae K66-45; design: species or system clinical isolates of E. coli and K. pneumoniae; Broth microdilution MIC (CLSI), cation-adjusted Mueller-Hinton broth, visual reading, antibiotic alone against clinical isolates; settings: Klebsiella pneumoniae, K6645, antibiotic alone
T13 construct: K66-45
Protocol: as §2

[9] = test system: T14, Klebsiella pneumoniae KresCPE0367; design: species or system clinical isolates of E. coli and K. pneumoniae; Broth microdilution MIC (CLSI), cation-adjusted Mueller-Hinton broth, visual reading, antibiotic alone against clinical isolates; settings: Klebsiella pneumoniae, KRESCPE0367, antibiotic alone
T14 construct: KresCPE0367
Protocol: as §2

[10] = read-out: MIC APC24-7 (μM) / APC148*
[11] = read-out: MIC AMX (mg/L) / AMX alone
[12] = read-out: MIC AZT (mg/L) / AZT alone
[13] = read-out: MIC FEP (mg/L) / FEP alone
[14] = read-out: MIC APC24-7 (μM) / Taniborbactam**

`CN(C[C@H](O)[C@@H](O)[C@H](O)[C@H](O)CO)C(=O)c1ccc(CN(Cc2ccccn2)Cc2ccccn2)nc1` [APC148] was tested, and the MIC (Escherichia coli MP21-05; [10]) was over 906 µM and the MIC (Escherichia coli MP32-64; [10]) was over 906 µM.
With `CC1(C)S[C@@H]2[C@H](NC(=O)[C@H](N)c3ccc(O)cc3)C(=O)N2[C@H]1C(=O)O` [amoxicillin] the MIC [1, 11] was over 64 mg/L, the MIC (Escherichia coli #36; [11]) was over 64 mg/L and the MIC [2, 11] was over 64 mg/L. For the same compound, the MIC [3, 11] was over 64 mg/L, the MIC (Escherichia coli #29; [11]) was over 64 mg/L and the MIC [4, 11] was over 64 mg/L. For the same compound, the MIC [5, 11] was over 64 mg/L, the MIC [6, 11] was over 64 mg/L and the MIC (Escherichia coli #22; [11]) was over 64 mg/L. For the same compound, the MIC [7, 11] was over 64 mg/L, the MIC [8, 11] was over 64 mg/L and the MIC [9, 11] was over 64 mg/L.
For `C[C@H]1[C@H](NC(=O)/C(=N\OC(C)(C)C(=O)O)c2csc(N)n2)C(=O)N1S(=O)(=O)O` [aztreonam], the MIC [1, 12] was over 64 mg/L, the MIC (Escherichia coli #36; [12]) was over 64 mg/L and the MIC [2, 12] was over 64 mg/L. It also gave an MIC [3, 12] of over 64 mg/L, an MIC (Escherichia coli #29; [12]) of over 64 mg/L and an MIC [4, 12] of 32 mg/L. For the same compound, the MIC [5, 12] was over 64 mg/L, the MIC [6, 12] was 64 mg/L and the MIC (Escherichia coli #22; [12]) was over 64 mg/L. The MIC [7, 12] was 16 mg/L, the MIC [8, 12] was over 64 mg/L and the MIC [9, 12] was over 64 mg/L.
In the case of `CO/N=C(\C(=O)N[C@@H]1C(=O)N2C(C(=O)[O-])=C(C[N+]3(C)CCCC3)CS[C@H]12)c1csc(N)n1` [cefepime], the MIC [1, 13] is reported as over 64 mg/L, the MIC (Escherichia coli #36; [13]) is reported as over 64 mg/L and the MIC [2, 13] is reported as over 64 mg/L. For the same compound, the MIC [3, 13] was over 64 mg/L, the MIC (Escherichia coli #29; [13]) was over 64 mg/L and the MIC [4, 13] was over 64 mg/L. The MIC [5, 13] was over 64 mg/L, the MIC [6, 13] was 16 mg/L and the MIC (Escherichia coli #22; [13]) was over 64 mg/L. For the same compound, the MIC [7, 13] was over 64 mg/L, the MIC [8, 13] was over 64 mg/L and the MIC [9, 13] was over 64 mg/L.
For `CC(C)(O/N=C(\C(=O)N[C@@H]1C(=O)N2C(C(=O)[O-])=C(C[n+]3ccccc3)CS[C@H]12)c1csc(N)n1)C(=O)O` [ceftazidime], the MIC ([1]; read-out: MIC) was over 64 mg/L, the MIC (Escherichia coli #36; read-out: MIC) was over 64 mg/L and the MIC ([2]; read-out: MIC) was over 64 mg/L. It also gave an MIC ([3]; read-out: MIC) of over 64 mg/L, an MIC (Escherichia coli #29; read-out: MIC) of over 64 mg/L and an MIC ([4]; read-out: MIC) of over 64 mg/L. For the same compound, the MIC ([5]; read-out: MIC) was over 64 mg/L, the MIC ([6]; read-out: MIC) was 8 mg/L and the MIC (Escherichia coli #22; read-out: MIC) was over 64 mg/L. The MIC ([7]; read-out: MIC) was over 64 mg/L, the MIC ([8]; read-out: MIC) was over 64 mg/L and the MIC ([9]; read-out: MIC) was over 64 mg/L.
`NCCN[C@H]1CC[C@H](CC(=O)N[C@H]2Cc3cccc(C(=O)O)c3OB2O)CC1` [taniborbactam] was tested, and the MIC (Escherichia coli MP21-05; [14]) was over 906 µM and the MIC (Escherichia coli MP32-64; [14]) was over 906 µM.
